Reference: PMC10257182, “Discovery of senolytics using machine learning” (Nature Communications, 2023)
“And” between values parts separate entries of the source, which are not always exact repeats. Identical values can stand only once. Like-named read-outs stand apart in the source and are kept apart here.

Tests used:
Assay type in all cases: cell-based, human
[1] = system: senescent A549 cells (etoposide-induced); assay: Nuclei count senolytic assay, therapy-induced senescence (TIS) model, senescent cells; conditions: Senescent cells, mean
Outline: (§1)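 Read-out is the imaged count of Hoechst 33342-stained nuclei (2 μg/ml final) in fixed, permeabilised A549 cells. Senescent cells had received etoposide at 100 μM for 48 h plus three days recovery in normal media. Compound exposure lasted 72 h across a 10-point […] range, 10 μM to 10 nM.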

[2] = system: senescent IMR90 ER:RAS cells (4-OHT-induced); assay: Nuclei count (Hoechst, high content imaging) senolytic assay, oncogene-induced senescence (OIS) model, senescent cells
Outline: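 Readout is automated image-based counting of Hoechst-stained nuclei per well, with loss of cells relative to untreated wells taken as cell death. Senescent (4-OHT, 100 nM) and control IMR90 ER:RAS cells were exposed to compounds for 72 h at 10 nM to 10 μM final.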

[3] = system: non-senescent control A549 cells; assay: Nuclei count senolytic assay, TIS model, non-senescent control cells; conditions: Control cells, mean
Outline: as §1

[4] = Homo sapiens, A549, log (dose) [M] -5, read-out: Mean % Cell Survival
[5] = Homo sapiens, A549, log (dose) [M] -5.33, read-out: Mean % Cell Survival
[6] = Homo sapiens, A549, log (dose) [M] -5.66, read-out: Mean % Cell Survival
[7] = Homo sapiens, A549, log (dose) [M] -6, read-out: Mean % Cell Survival
[8] = Homo sapiens, A549, log (dose) [M] -6.33, read-out: Mean % Cell Survival
[9] = Homo sapiens, A549, log (dose) [M] -6.66, read-out: Mean % Cell Survival
[10] = Homo sapiens, A549, log (dose) [M] -7, read-out: Mean % Cell Survival
[11] = Homo sapiens, A549, log (dose) [M] -7.33, read-out: Mean % Cell Survival
[12] = Homo sapiens, A549, log (dose) [M] -7.66, read-out: Mean % Cell Survival
[13] = Homo sapiens, A549, log (dose) [M] -8, read-out: Mean % Cell Survival

## COC[C@H]1C[C@@H](c2nc(-c3ccc4c(c3)COc3cc5c(ccc6nc([C@@H]7CC[C@H](C)N7C(=O)[C@@H](NC(=O)OC)C(C)C)[nH]c65)cc3-4)c[nH]2)N(C(=O)[C@H](NC(=O)OC)c2ccccc2)C1 [Velpatasvir, velpatasvir, reference compound]
[1]; [4]
  viability at 10 µM: 114%
[1]; [5]
  viability at 4.68 µM: 105%
[1]; [6]
  viability at 2.19 µM: 120%
[1]; [7]
  viability at 1 µM: 122%
[1]; [8]
  viability at 0.468 µM: 122%
[1]; [9]
  viability at 0.219 µM: 113%
[1]; [10]
  viability at 0.1 µM: 112%
[1]; [11]
  viability at 0.0468 µM: 115%
[1]; [12]
  viability at 0.0219 µM: 91.3%
[1]; [13]
  viability at 0.01 µM: 104%
[2]; Homo sapiens, IMR-90, 72 h, Senescent, log (dose) [M] -5, 72 h, mean n=3 (Fig 3C), read-out: Mean % Cell Survival
  viability at 10 µM: 97.8%
[2]; Homo sapiens, IMR-90, 72 h, Senescent, log (dose) [M] -5.33, 72 h, mean n=3 (Fig 3C), read-out: Mean % Cell Survival
  viability at 4.677 µM: 116%
[2]; Homo sapiens, IMR-90, 72 h, Senescent, log (dose) [M] -5.66, 72 h, mean n=3 (Fig 3C), read-out: Mean % Cell Survival
  viability at 2.188 µM: 102%
[2]; Homo sapiens, IMR-90, 72 h, Senescent, log (dose) [M] -6, 72 h, mean n=3 (Fig 3C), read-out: Mean % Cell Survival
  viability at 1 µM: 112%
[2]; Homo sapiens, IMR-90, 72 h, Senescent, log (dose) [M] -6.33, 72 h, mean n=3 (Fig 3C), read-out: Mean % Cell Survival
  viability at 0.4677 µM: 78.2%
[2]; Homo sapiens, IMR-90, 72 h, Senescent, log (dose) [M] -6.66, 72 h, mean n=3 (Fig 3C), read-out: Mean % Cell Survival
  viability at 0.2188 µM: 83.6%
[2]; Homo sapiens, IMR-90, 72 h, Senescent, log (dose) [M] -7, 72 h, mean n=3 (Fig 3C), read-out: Mean % Cell Survival
  viability at 0.1 µM: 88.6%
[2]; Homo sapiens, IMR-90, 72 h, Senescent, log (dose) [M] -7.33, 72 h, mean n=3 (Fig 3C), read-out: Mean % Cell Survival
  viability at 0.04677 µM: 91.5%
[2]; Homo sapiens, IMR-90, 72 h, Senescent, log (dose) [M] -7.66, 72 h, mean n=3 (Fig 3C), read-out: Mean % Cell Survival
  viability at 0.02188 µM: 108%
[2]; Homo sapiens, IMR-90, 72 h, Senescent, log (dose) [M] -8, 72 h, mean n=3 (Fig 3C), read-out: Mean % Cell Survival
  viability at 0.01 µM: 100%
[2]; Homo sapiens, IMR-90, Senescent cells, log (dose) [M] -5, individual replicates, SUP FIG 4C, read-out: % Cell Survival
  viability at 10 µM: 100%
[2]; Homo sapiens, IMR-90, Senescent cells, log (dose) [M] -5.66, individual replicates, SUP FIG 4C, read-out: % Cell Survival
  viability at 2.188 µM: 111%
[2]; Homo sapiens, IMR-90, Senescent cells, log (dose) [M] -6, individual replicates, SUP FIG 4C, read-out: % Cell Survival
  viability at 1 µM: 108%
[2]; Homo sapiens, IMR-90, Senescent cells, log (dose) [M] -6.66, individual replicates, SUP FIG 4C, read-out: % Cell Survival
  viability at 0.2188 µM: 90.3%
[2]; Homo sapiens, IMR-90, Senescent cells, log (dose) [M] -7, individual replicates, SUP FIG 4C, read-out: % Cell Survival
  viability at 0.1 µM: 89%
[2]; Homo sapiens, IMR-90, Senescent cells, log (dose) [M] -7.33, individual replicates, SUP FIG 4C, read-out: % Cell Survival
  viability at 0.04677 µM: 85.1%
[2]; Homo sapiens, IMR-90, Senescent cells, log (dose) [M] -7.66, individual replicates, SUP FIG 4C, read-out: % Cell Survival
  viability at 0.02188 µM: 103%
[2]; Homo sapiens, IMR-90, Senescent cells, log (dose) [M] -8, individual replicates, SUP FIG 4C, read-out: % Cell Survival
  viability at 0.01 µM: 94.1%
[3]; [4]
  viability at 10 µM: 80.9%
[3]; [5]
  viability at 4.68 µM: 84.4%
[3]; [6]
  viability at 2.19 µM: 80.3%
[3]; [7]
  viability at 1 µM: 52.9%
[3]; [8]
  viability at 0.468 µM: 93.4%
[3]; [9]
  viability at 0.219 µM: 28.7%
[3]; [10]
  viability at 0.1 µM: 88.2%
[3]; [11]
  viability at 0.0468 µM: 89.2%
[3]; [12]
  viability at 0.0219 µM: 92.1%
[3]; [13]
  viability at 0.01 µM: 96.1%

## C=Cc1c(C)c2cc3nc(cc4[nH]c(cc5nc(cc1[nH]2)C(C)=C5CCC(=O)O)c(CCC(=O)OC)c4C)[C@@]1(C)C3=CC=C(C(=O)OC)[C@H]1C(=O)OC [Verteporfin, verteporfin, reference compound]
[1]; log (dose) [M] -5
  Mean % Cell Survival: 118.472%
[1]; log (dose) [M] -5.33
  Mean % Cell Survival: 98.5505%
[1]; log (dose) [M] -5.66
  Mean % Cell Survival: 115.47%
[1]; log (dose) [M] -6
  Mean % Cell Survival: 116.11%
[1]; log (dose) [M] -6.33
  Mean % Cell Survival: 114.215%
[1]; log (dose) [M] -6.66
  Mean % Cell Survival: 107.66%
[1]; log (dose) [M] -7
  Mean % Cell Survival: 100.361%
[1]; log (dose) [M] -7.33
  Mean % Cell Survival: 89.0589%
[1]; log (dose) [M] -7.66
  Mean % Cell Survival: 106.923%
[1]; log (dose) [M] -8
  Mean % Cell Survival: 100.292%
[2]; Senescent cells, log (dose) [M] -5, individual replicates, SUP FIG 4C
  % Cell Survival: 93.9435% and 91.1111% and 111.269%
[2]; Senescent cells, log (dose) [M] -5.33, individual replicates, SUP FIG 4C
  % Cell Survival: 81.5612% and 99.085% and 87.8238%
[2]; Senescent cells, log (dose) [M] -5.66, individual replicates, SUP FIG 4C
  % Cell Survival: 114.536% and 91.2418% and 98.8342%
[2]; Senescent cells, log (dose) [M] -6, individual replicates, SUP FIG 4C
  % Cell Survival: 68.7752% and 100.915% and 109.974%
[2]; Senescent cells, log (dose) [M] -6.33, individual replicates, SUP FIG 4C
  % Cell Survival: 85.8681% and 55.5556% and 108.549%
[2]; Senescent cells, log (dose) [M] -6.66, individual replicates, SUP FIG 4C
  % Cell Survival: 84.253% and 107.32% and 95.2073%
[2]; Senescent cells, log (dose) [M] -7, individual replicates, SUP FIG 4C
  % Cell Survival: 86.541% and 87.8431% and 90.544%
[2]; Senescent cells, log (dose) [M] -7.33, individual replicates, SUP FIG 4C
  % Cell Survival: 95.5585% and 120.915% and 93.9119%
[2]; Senescent cells, log (dose) [M] -7.66, individual replicates, SUP FIG 4C
  % Cell Survival: 98.3849% and 123.268% and 87.8238%
[2]; Senescent cells, log (dose) [M] -8, individual replicates, SUP FIG 4C
  % Cell Survival: 86.541% and 113.464% and 76.6839%
[2]; Senescent, log (dose) [M] -5, 72 h, mean n=3 (Fig 3C)
  Mean % Cell Survival: 98.7747%
[2]; Senescent, log (dose) [M] -5.33, 72 h, mean n=3 (Fig 3C)
  Mean % Cell Survival: 89.49%
[2]; Senescent, log (dose) [M] -5.66, 72 h, mean n=3 (Fig 3C)
  Mean % Cell Survival: 101.537%
[2]; Senescent, log (dose) [M] -6, 72 h, mean n=3 (Fig 3C)
  Mean % Cell Survival: 93.2215%
[2]; Senescent, log (dose) [M] -6.33, 72 h, mean n=3 (Fig 3C)
  Mean % Cell Survival: 83.3243%
[2]; Senescent, log (dose) [M] -6.66, 72 h, mean n=3 (Fig 3C)
  Mean % Cell Survival: 95.5935%
[2]; Senescent, log (dose) [M] -7, 72 h, mean n=3 (Fig 3C)
  Mean % Cell Survival: 88.3094%
[2]; Senescent, log (dose) [M] -7.33, 72 h, mean n=3 (Fig 3C)
  Mean % Cell Survival: 103.462%
[2]; Senescent, log (dose) [M] -7.66, 72 h, mean n=3 (Fig 3C)
  Mean % Cell Survival: 103.159%
[2]; Senescent, log (dose) [M] -8, 72 h, mean n=3 (Fig 3C)
  Mean % Cell Survival: 92.2297%
[2]; Senescent, log (dose) [M] -5
  % Cell Survival: 113.825% and 103.66% and 137.931%
[2]; Senescent, log (dose) [M] -5.33
  % Cell Survival: 79.9635% and 100.131% and 115.557%
[2]; Senescent, log (dose) [M] -5.66
  % Cell Survival: 102.923% and 109.085% and 134.403%
[2]; Senescent, log (dose) [M] -6
  % Cell Survival: 99.1474% and 91.7647% and 157.418%
[2]; Senescent, log (dose) [M] -6.33
  % Cell Survival: 98.8429% and 106.993% and 136.808%
[2]; Senescent, log (dose) [M] -6.66
  % Cell Survival: 92.57% and 116.536% and 113.873%
[2]; Senescent, log (dose) [M] -7
  % Cell Survival: 103.898% and 73.5294% and 123.657%
[2]; Senescent, log (dose) [M] -7.33
  % Cell Survival: 62.363% and 86.2092% and 118.605%
[2]; Senescent, log (dose) [M] -7.66
  % Cell Survival: 100.061% and 91.4379% and 129.27%
[2]; Senescent, log (dose) [M] -8
  % Cell Survival: 96.6504% and 87.3856% and 116.84%
[3]; log (dose) [M] -5
  Mean % Cell Survival: 113.771%
[3]; log (dose) [M] -5.33
  Mean % Cell Survival: 108.79%
[3]; log (dose) [M] -5.66
  Mean % Cell Survival: 94.7872%
[3]; log (dose) [M] -6
  Mean % Cell Survival: 92.365%
[3]; log (dose) [M] -6.33
  Mean % Cell Survival: 96.0501%
[3]; log (dose) [M] -6.66
  Mean % Cell Survival: 101.194%
[3]; log (dose) [M] -7
  Mean % Cell Survival: 90.846%
[3]; log (dose) [M] -7.33
  Mean % Cell Survival: 108.359%
[3]; log (dose) [M] -7.66
  Mean % Cell Survival: 100.589%
[3]; log (dose) [M] -8
  Mean % Cell Survival: 97.9379%
